According to the NIST ThermoML archive (doi:10.1021/je4009415):
Numbers after ± are expanded uncertainties.

Test: xn = mol fraction of the nth substance listed
Details: Liquid, Vibrating tube method

Structure (SMILES): CCC(=O)OC [methyl propanoate] + CCCCCCCCC
- mass density (288.15 K, x1 = 0.0638): 727.45 ± 0.26 kg/m3
- mass density (288.15 K, x1 = 0.0962): 730.67 ± 0.27 kg/m3
- mass density (288.15 K, x1 = 0.1483): 736.11 ± 0.29 kg/m3
- mass density (288.15 K, x1 = 0.2104): 743.23 ± 0.31 kg/m3
- mass density (288.15 K, x1 = 0.2364): 746.3 ± 0.32 kg/m3
- mass density (288.15 K, x1 = 0.2979): 754.2 ± 0.34 kg/m3
- mass density (288.15 K, x1 = 0.3526): 761.75 ± 0.36 kg/m3
- mass density (288.15 K, x1 = 0.4001): 768.71 ± 0.39 kg/m3
- mass density (288.15 K, x1 = 0.4322): 773.78 ± 0.4 kg/m3
- mass density (288.15 K, x1 = 0.4985): 784.9 ± 0.44 kg/m3
- mass density (288.15 K, x1 = 0.5504): 794.42 ± 0.47 kg/m3
- mass density (288.15 K, x1 = 0.5954): 803.25 ± 0.5 kg/m3
- mass density (288.15 K, x1 = 0.6449): 813.66 ± 0.53 kg/m3
- mass density (288.15 K, x1 = 0.693): 824.65 ± 0.57 kg/m3
- mass density (288.15 K, x1 = 0.7454): 837.57 ± 0.61 kg/m3
- mass density (288.15 K, x1 = 0.7911): 849.84 ± 0.65 kg/m3
- mass density (288.15 K, x1 = 0.8391): 863.79 ± 0.7 kg/m3
- mass density (288.15 K, x1 = 0.8911): 880.25 ± 0.76 kg/m3
- mass density (288.15 K, x1 = 0.9477): 900.31 ± 0.83 kg/m3
- mass density (288.15 K, x1 = 1): 921.21 ± 0.89 kg/m3
- mass density (298.15 K, x1 = 0.0519): 718.48 ± 0.26 kg/m3
- mass density (298.15 K, x1 = 0.1041): 723.58 ± 0.27 kg/m3
- mass density (298.15 K, x1 = 0.1448): 727.66 ± 0.29 kg/m3
- mass density (298.15 K, x1 = 0.1889): 732.52 ± 0.3 kg/m3
- mass density (298.15 K, x1 = 0.2498): 739.65 ± 0.32 kg/m3
- mass density (298.15 K, x1 = 0.2949): 745.26 ± 0.34 kg/m3
- mass density (298.15 K, x1 = 0.3489): 752.48 ± 0.36 kg/m3
- mass density (298.15 K, x1 = 0.409): 761.11 ± 0.39 kg/m3
- mass density (298.15 K, x1 = 0.4474): 767.1 ± 0.41 kg/m3
- mass density (298.15 K, x1 = 0.5033): 776.37 ± 0.44 kg/m3
- mass density (298.15 K, x1 = 0.6015): 794.61 ± 0.49 kg/m3
- mass density (298.15 K, x1 = 0.6609): 807.17 ± 0.54 kg/m3
- mass density (298.15 K, x1 = 0.7048): 817.21 ± 0.57 kg/m3
- mass density (298.15 K, x1 = 0.751): 828.64 ± 0.61 kg/m3
- mass density (298.15 K, x1 = 0.7937): 839.79 ± 0.65 kg/m3
- mass density (298.15 K, x1 = 0.8444): 854.36 ± 0.7 kg/m3
- mass density (298.15 K, x1 = 0.9002): 871.96 ± 0.76 kg/m3
- mass density (298.15 K, x1 = 0.9516): 890.02 ± 0.82 kg/m3
- mass density (298.15 K, x1 = 1): 909.1 ± 0.88 kg/m3
- mass density (308.15 K, x1 = 0.0618): 711.31 ± 0.26 kg/m3
- mass density (308.15 K, x1 = 0.1007): 715.02 ± 0.27 kg/m3
- mass density (308.15 K, x1 = 0.165): 721.49 ± 0.29 kg/m3
- mass density (308.15 K, x1 = 0.1941): 724.61 ± 0.3 kg/m3
- mass density (308.15 K, x1 = 0.2601): 732.22 ± 0.32 kg/m3
- mass density (308.15 K, x1 = 0.2902): 735.94 ± 0.34 kg/m3
- mass density (308.15 K, x1 = 0.3585): 744.82 ± 0.36 kg/m3
- mass density (308.15 K, x1 = 0.4102): 752.25 ± 0.38 kg/m3
- mass density (308.15 K, x1 = 0.4567): 759.29 ± 0.41 kg/m3
- mass density (308.15 K, x1 = 0.4962): 765.69 ± 0.43 kg/m3
- mass density (308.15 K, x1 = 0.5559): 776.15 ± 0.46 kg/m3
- mass density (308.15 K, x1 = 0.5986): 784.17 ± 0.49 kg/m3
- mass density (308.15 K, x1 = 0.6514): 794.91 ± 0.52 kg/m3
- mass density (308.15 K, x1 = 0.699): 805.43 ± 0.56 kg/m3
- mass density (308.15 K, x1 = 0.7476): 817.03 ± 0.6 kg/m3
- mass density (308.15 K, x1 = 0.796): 829.48 ± 0.64 kg/m3
- mass density (308.15 K, x1 = 0.8477): 844.14 ± 0.69 kg/m3
- mass density (308.15 K, x1 = 0.8947): 858.8 ± 0.74 kg/m3
- mass density (308.15 K, x1 = 0.9504): 877.94 ± 0.81 kg/m3
- mass density (308.15 K, x1 = 1): 896.91 ± 0.86 kg/m3
- mass density (318.15 K, x1 = 0.0587): 703.05 ± 0.26 kg/m3
- mass density (318.15 K, x1 = 0.1139): 708.17 ± 0.28 kg/m3
- mass density (318.15 K, x1 = 0.141): 710.78 ± 0.28 kg/m3
- mass density (318.15 K, x1 = 0.2148): 718.51 ± 0.31 kg/m3
- mass density (318.15 K, x1 = 0.2624): 723.9 ± 0.32 kg/m3
- mass density (318.15 K, x1 = 0.3145): 730.23 ± 0.34 kg/m3
- mass density (318.15 K, x1 = 0.3621): 736.39 ± 0.36 kg/m3
- mass density (318.15 K, x1 = 0.394): 740.75 ± 0.38 kg/m3
- mass density (318.15 K, x1 = 0.4491): 748.79 ± 0.4 kg/m3
- mass density (318.15 K, x1 = 0.4889): 755.06 ± 0.42 kg/m3
- mass density (318.15 K, x1 = 0.5458): 764.61 ± 0.45 kg/m3
- mass density (318.15 K, x1 = 0.6011): 774.72 ± 0.48 kg/m3
- mass density (318.15 K, x1 = 0.6538): 785.15 ± 0.52 kg/m3
- mass density (318.15 K, x1 = 0.6972): 794.52 ± 0.55 kg/m3
- mass density (318.15 K, x1 = 0.7464): 805.96 ± 0.59 kg/m3
- mass density (318.15 K, x1 = 0.7904): 816.99 ± 0.62 kg/m3
- mass density (318.15 K, x1 = 0.8414): 831.04 ± 0.67 kg/m3
- mass density (318.15 K, x1 = 0.8899): 845.62 ± 0.72 kg/m3
- mass density (318.15 K, x1 = 0.9498): 865.72 ± 0.79 kg/m3
- mass density (318.15 K, x1 = 1): 884.71 ± 0.84 kg/m3
- mass density (328.15 K, x1 = 0.0562): 694.8 ± 0.26 kg/m3
- mass density (328.15 K, x1 = 0.0989): 698.61 ± 0.27 kg/m3
- mass density (328.15 K, x1 = 0.1503): 703.45 ± 0.29 kg/m3
- mass density (328.15 K, x1 = 0.1813): 706.43 ± 0.3 kg/m3
- mass density (328.15 K, x1 = 0.194): 707.71 ± 0.3 kg/m3
- mass density (328.15 K, x1 = 0.2651): 715.48 ± 0.32 kg/m3
- mass density (328.15 K, x1 = 0.3128): 721.06 ± 0.34 kg/m3
- mass density (328.15 K, x1 = 0.3582): 726.72 ± 0.36 kg/m3
- mass density (328.15 K, x1 = 0.4509): 739.58 ± 0.4 kg/m3
- mass density (328.15 K, x1 = 0.5045): 747.9 ± 0.42 kg/m3
- mass density (328.15 K, x1 = 0.5545): 756.22 ± 0.45 kg/m3
- mass density (328.15 K, x1 = 0.6005): 764.42 ± 0.48 kg/m3
- mass density (328.15 K, x1 = 0.6523): 774.55 ± 0.51 kg/m3
- mass density (328.15 K, x1 = 0.7484): 795.44 ± 0.58 kg/m3
- mass density (328.15 K, x1 = 0.7963): 807.38 ± 0.62 kg/m3
- mass density (328.15 K, x1 = 0.8469): 821.01 ± 0.66 kg/m3
- mass density (328.15 K, x1 = 0.9004): 836.96 ± 0.72 kg/m3
- mass density (328.15 K, x1 = 0.9501): 853.63 ± 0.78 kg/m3
- mass density (328.15 K, x1 = 1): 872.22 ± 0.83 kg/m3
